# Laboratory results as given in patent publication US7125984B2, “Glucuronofucan sulfate” (Takara Bio Inc., priority 2000, dated 2006).
# Tests used:
# α-D-glucuronidase = experiment: effect of calcium salt, protein and sodium chloride on the enzymatic reaction of α-D-glucuronidase; format: biochemical, Fucophilus fucoidanolyticus strain SI-1234; conditions: for activation of α-D-glucuronidase (relative activity versus concentration in the reaction system): result in words
# From the text: (§1) Then, the relationship between the relative activity of the α-D-glucuronidase or the endo-α-L-fucosidase of the present invention and the concentration of calcium chloride contained in the reaction system was examined.
# (§2) Then, the relationship between the relative activity of the α-D-glucuronidase or the endo-α-L-fucosidase of the present invention and the concentration of bovine serum albumin contained in the reaction system was examined.
# (§3) Then, the relationship between the relative activity of the α-D-glucuronidase or the endo-α-L-fucosidase of the present invention and the concentration of sodium chloride contained in the reaction system was examined.
# endo-α-L-fucosidase = experiment: effect of calcium salt, protein and sodium chloride on the enzymatic reaction of endo-α-L-fucosidase; format: biochemical, Fucophilus fucoidanolyticus strain SI-1234; conditions: for activation of endo-α-L-fucosidase (relative activity versus concentration in the reaction system): result in words
# From the text: as §1, §2, §3
# [1] = oligosaccharide having a low molecular weight as substrate
# [2] = sulfated glucuronofucan having a high molecular weight as substrate
Compound,activation of α-D-glucuronidase (relative activity versus concentration in the reaction system) (α-D-glucuronidase),activation of endo-α-L-fucosidase (relative activity versus concentration in the reaction system) (endo-α-L-fucosidase),activation of α-D-glucuronidase (α-D-glucuronidase; [1]),activation of α-D-glucuronidase (α-D-glucuronidase; [2]),activation of endo-α-L-fucosidase (endo-α-L-fucosidase; [1]),activation of endo-α-L-fucosidase (endo-α-L-fucosidase; [2])
[Ca+2].[Cl-].[Cl-] [calcium chloride],activated,activated,–,–,–,–
[Cl-].[Na+] [sodium chloride],–,–,not activated,activates,not activated,activates
bovine serum albumin: protein added to the reaction system as enzyme activator,activated,activated,–,–,–,–
